For eight compounds, IC50 and viability, T/C results are on record in PubChem BioAssay AID1918954 (Molecular Pharmacology Branch, DTP, NCI, 2023).

Structures are written as SMILES. “And” between values parts separate entries of the source, which are not always exact repeats. Identical values can stand only once.

This assay has as its system MDA-MB-468 complex spheroids with HUVEC/MSC, viability. As to the kind of experiment: Anticancer human tumor MDA-MB-468 cell line growth inhibition.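 As to all read-outs here: spheroids exposed to agents for seven days.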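 As to viability, T/C: 100% = DMSO vehicle control viability.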 The conditions noted are these: for viability, T/C: stronger effect = lower value. In short, it runs like this: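 Complex spheroids of tumor cells with HUVEC and human MSCs, exposed to iadademstat combined with other agents. Each agent tested in half-log steps from near clinical Cmax (else 10 microM top), DMSO ≤0.25%.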

Setting [1] is: curve of first compound, second compound 0.1 µM.
Setting [2] is: curve of first compound, second compound 0.316 µM.
Where [3] appears, read: curve of first compound, second compound 1 µM.
Setting [4] is: curve of first compound, second compound 3.16 µM.
Setting [5] is: curve of first compound, second compound 10 µM.
Setting [6] is: second compound 0.1 µM, first compound 0.000316 µM.
Setting [7] is: second compound 0.1 µM, first compound 0.001 µM.
[8] abbreviates: second compound 0.1 µM, first compound 0.00316 µM.
Setting [9] is: second compound 0.1 µM, first compound 0.01 µM.
The mark [10] stands for this setting: second compound 0.1 µM, first compound 0.0316 µM.
The mark [11] stands for this setting: second compound 0.1 µM, first compound 0.1 µM.
Setting [12] is: second compound 0.316 µM, first compound 0.000316 µM.
The mark [13] stands for this setting: second compound 0.316 µM, first compound 0.001 µM.
The mark [14] stands for this setting: second compound 0.316 µM, first compound 0.00316 µM.
[15] abbreviates: second compound 0.316 µM, first compound 0.01 µM.
The mark [16] stands for this setting: second compound 0.316 µM, first compound 0.0316 µM.
The mark [17] stands for this setting: second compound 0.316 µM, first compound 0.1 µM.
[18] abbreviates: second compound 1 µM, first compound 0.000316 µM.
The mark [19] stands for this setting: second compound 1 µM, first compound 0.001 µM.
The mark [20] stands for this setting: second compound 1 µM, first compound 0.00316 µM.
The mark [21] stands for this setting: second compound 1 µM, first compound 0.01 µM.
The mark [22] stands for this setting: second compound 1 µM, first compound 0.0316 µM.
Where [23] appears, read: second compound 1 µM, first compound 0.1 µM.
Setting [24] is: second compound 3.16 µM, first compound 0.000316 µM.
Setting [25] is: second compound 3.16 µM, first compound 0.001 µM.
Setting [26] is: second compound 3.16 µM, first compound 0.00316 µM.
Where [27] appears, read: second compound 3.16 µM, first compound 0.01 µM.
Setting [28] is: second compound 3.16 µM, first compound 0.0316 µM.
The mark [29] stands for this setting: second compound 3.16 µM, first compound 0.1 µM.
[30] abbreviates: second compound 10 µM, first compound 0.000316 µM.
[31] abbreviates: second compound 10 µM, first compound 0.001 µM.
[32] abbreviates: second compound 10 µM, first compound 0.00316 µM.
[33] abbreviates: second compound 10 µM, first compound 0.01 µM.
Where [34] appears, read: second compound 10 µM, first compound 0.0316 µM.
Setting [35] is: second compound 10 µM, first compound 0.1 µM.
[36] abbreviates: second compound 0.1 µM, first compound 0.316 µM.
Setting [37] is: second compound 0.1 µM, first compound 1 µM.
The mark [38] stands for this setting: second compound 0.316 µM, first compound 0.316 µM.
Where [39] appears, read: second compound 0.316 µM, first compound 1 µM.
The mark [40] stands for this setting: second compound 1 µM, first compound 0.316 µM.
Where [41] appears, read: second compound 1 µM, first compound 1 µM.
[42] abbreviates: second compound 3.16 µM, first compound 0.316 µM.
Where [43] appears, read: second compound 3.16 µM, first compound 1 µM.
[44] abbreviates: second compound 10 µM, first compound 0.316 µM.
Where [45] appears, read: second compound 10 µM, first compound 1 µM.

For `Cn1ncnc1C1c2n[nH]c(=O)c3cc(F)cc(c23)NC1c1ccc(F)cc1` (stereo unspecified) + NC1CC1c1ccc(-c2cccc(O)c2)cc1, the IC50 (commonly the concentration at which inhibition is half-maximal) reads like this: under setting [1], 87.7 nM; under setting [2], above 100 nM; under setting [3], above 100 nM; under setting [4], 12 nM; under setting [5], 2.6 nM. The viability, T/C – broadly, the ratio of treated to control – is 98.1% under setting [6]; 102% under setting [7]; 72.5% under setting [8]; 73.1% under setting [9]; 64.6% under setting [10]; 46.7% under setting [11]. The viability, T/C is 120% under setting [12]; 79.1% under setting [13]; 67.4% under setting [14]; 60.9% under setting [15]; 52.8% under setting [16]; 46% under setting [17]. The viability, T/C is 93.2% under setting [18]; 112% under setting [19]; 67% under setting [20]; 57.6% under setting [21]; 61.9% under setting [22]; 42.4% under setting [23]. Besides, the viability, T/C under setting [24] is 92.8%; the viability, T/C under setting [25] is 85.5%; the viability, T/C under setting [26] was 74.5%; the viability, T/C under setting [27] was 48.2%; the viability, T/C under setting [28] is 50.6%; the viability, T/C under setting [29] is 39.1%. In addition, the viability, T/C runs as follows: under setting [30], 74.1%; under setting [31], 67.7%; under setting [32], 45.9%; under setting [33], 33.5%; under setting [34], 34.8%; under setting [35], 26.3%.

With `Nc1ccn(C2OC(CO)C(O)C2(F)F)c(=O)n1` (stereo unspecified), the viability, T/C reads like this: (compound 0.003 µM) 6.32% and 18.5%; (compound 0.00949 µM) 5.5% and 5.58%; (compound 0.03 µM) 5.68% and 4.46%; (compound 0.0949 µM) 5.72% and 4.42%; (compound 0.3 µM) 5.93% and 4.29%. In addition, the IC50 (curve of compound) was below 0.949 nM.

Take `Cn1ncnc1C1c2n[nH]c(=O)c3cc(F)cc(c23)NC1c1ccc(F)cc1` (stereo unspecified) + NC1CCC(NC2CC2c2ccccc2)CC1: the half-inhibitory concentration (IC50) was 90.3 nM under setting [1]; above 100 nM under setting [2]; above 100 nM under setting [3]; above 100 nM under setting [4]; 24 nM under setting [5]. In addition, the viability, T/C runs as follows: under setting [6], 74.5%; under setting [7], 81.9%; under setting [8], 81.3%; under setting [9], 71.8%; under setting [10], 70.8%; under setting [11], 47.8%. Further, the viability, T/C by setting is: under setting [12], 94.9%; under setting [13], 84.6%; under setting [14], 91.5%; under setting [15], 76.9%; under setting [16], 70.8%; under setting [17], 49.5%. The viability, T/C is, setting by setting: under setting [18], 65.5%; under setting [19], 85%; under setting [20], 80.4%; under setting [21], 65.7%; under setting [22], 60.4%; under setting [23], 50.3%. For the same compound, the viability, T/C under setting [24] was 80.6%; the viability, T/C under setting [25] is 86.9%; the viability, T/C under setting [26] is 72.7%; the viability, T/C under setting [27] is 62.7%; the viability, T/C under setting [28] was 60.3%; the viability, T/C under setting [29] was 54.7%. Further, the viability, T/C reads like this: under setting [30], 67.5%; under setting [31], 57%; under setting [32], 62.4%; under setting [33], 56.4%; under setting [34], 46.7%; under setting [35], 40.3%.

Consider `COc1cc(Nc2ncc3c(n2)-c2ccc(Cl)cc2C(c2c(F)cccc2OC)=NC3)ccc1C(=O)O`, for which the viability, T/C (compound 0.00316 µM) was 69.6% and 17.2%; the viability, T/C (compound 0.01 µM) was 28.3% and 7.92%; the viability, T/C (compound 0.0316 µM) was 17.4% and 5.89%; the viability, T/C (compound 0.1 µM) was 8.67% and 6.08%; the viability, T/C (compound 0.316 µM) is 7.8% and 4.66%; the viability, T/C (compound 1 µM) was 7.38% and 3%. In addition, the IC50 (curve of compound) was 5.54 nM and < 3.16 nM.

In the case of `NC1CCC(NC2CC2c2ccccc2)CC1` (stereo unspecified), the viability, T/C (compound 0.316 µM) was 96.4% and 88.1% and 98.6%. Moreover, where the note is “compound alone, run of 01/24/2022”, the IC50 is > 10000 nM and 9570 nM.

As to `COc1ccc([C@@H](O)c2cc(-c3ncnc4cc(N5CCOCC5)ccc34)c(F)cc2Cl)nn1` + NC1CC1c1ccc(-c2cccc(O)c2)cc1, the IC50 runs as follows: under setting [1], 878 nM; under setting [2], 876 nM; under setting [3], 720 nM; under setting [4], 701 nM; under setting [5], 228 nM. Further, the viability, T/C was 113% under setting [10]; 103% under setting [11]; 69.1% under setting [36]; 47.4% under setting [37]; 26.1% (second compound 0.1 µM, first compound 3.16 µM); 6.17% (second compound 0.1 µM, first compound 10 µM). Moreover, the viability, T/C under setting [16] is 107%; the viability, T/C under setting [17] was 82.3%; the viability, T/C under setting [38] is 69.8%; the viability, T/C under setting [39] is 52.8%; the viability, T/C (second compound 0.316 µM, first compound 3.16 µM) was 25.9%; the viability, T/C (second compound 0.316 µM, first compound 10 µM) was 5.99%. Further, the viability, T/C is 109% under setting [22]; 109% under setting [23]; 71.9% under setting [40]; 39.6% under setting [41]; 21% (second compound 1 µM, first compound 3.16 µM); 5.38% (second compound 1 µM, first compound 10 µM). The viability, T/C reads like this: under setting [28], 102%; under setting [29], 87.8%; under setting [42], 73.4%; under setting [43], 37.2%; (second compound 3.16 µM, first compound 3.16 µM) 21.5%; (second compound 3.16 µM, first compound 10 µM) 4.59%. The viability, T/C reads like this: under setting [34], 69.2%; under setting [35], 59.8%; under setting [44], 45.1%; under setting [45], 33.2%; (second compound 10 µM, first compound 3.16 µM) 20.1%; (second compound 10 µM, first compound 10 µM) 2.86%.

Consider `Nc1ncn(C2CC(O)C(CO)O2)c(=O)n1` (stereo unspecified) + NC1CCC(NC2CC2c2ccccc2)CC1, for which the IC50 reads like this: under setting [1], 14.2 nM; under setting [2], 9.71 nM; under setting [3], 12.3 nM; under setting [4], 11.6 nM; under setting [5], 5.55 nM. Further, the viability, T/C runs as follows: under setting [8], 88.4%; under setting [9], 59.4%; under setting [10], 28.7%; under setting [11], 14.2%; under setting [36], 9.84%; under setting [37], 8.86%. The viability, T/C runs as follows: under setting [14], 84.6%; under setting [15], 48.6%; under setting [16], 28.1%; under setting [17], 15.6%; under setting [38], 9.97%; under setting [39], 10.2%. Besides, the viability, T/C under setting [20] is 83%; the viability, T/C under setting [21] was 54.9%; the viability, T/C under setting [22] is 27.5%; the viability, T/C under setting [23] was 15.4%; the viability, T/C under setting [40] is 11.1%; the viability, T/C under setting [41] was 10.6%. The viability, T/C under setting [26] was 67.7%; the viability, T/C under setting [27] was 53.4%; the viability, T/C under setting [28] is 28.2%; the viability, T/C under setting [29] is 15.5%; the viability, T/C under setting [42] was 11.3%; the viability, T/C under setting [43] was 9.32%. For the same compound, the viability, T/C by setting is: under setting [32], 57.4%; under setting [33], 42.2%; under setting [34], 24.4%; under setting [35], 14.4%; under setting [44], 10.6%; under setting [45], 10.1%.

With `NC1CC1c1ccc(-c2cccc(O)c2)cc1` (stereo unspecified), where the note is “compound alone, run of 02/01/2022”, the IC50 is above 10000 nM.
